Source: US20100298141A1, “SUBSTITUTED PYRIDINE N-OXIDE HERBICIDES” (E. I. DU PONT DE NEMOURS AND COMPANY, priority 2007, published 2010)

Legend:
barnyardgrass [1] = assay: Test A pre-/postemergence greenhouse test; type: in vivo, Echinochloa crus-galli; conditions: for Plant response rating, Barnyardgrass: 0 to 100 scale where 0 is no effect and 100 is complete control; for Barnyardgrass plant response rating: 0 to 100 scale
Outline: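 Visual injury ratings against untreated controls, taken roughly ten days after treatment in greenhouse. Plants were sprayed postemergence at one- to two-leaf stage (2–10 cm tall); at the same time, seeded loam/sand soil received a directed preemergence spray. Formulation: non-phytotoxic solvent mixture with surfactant.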

cocklebur = assay: Test C pre-/postemergence test; type: in vivo, Xanthium strumarium; conditions: for Plant response rating, Cocklebur: scale 0 to 100, 0 no effect, 100 complete control
Outline: (§1)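 Compounds in a non-phytotoxic solvent with surfactant applied preemergence to seeded pots and, at the same time, postemergence to plants 2–18 cm tall (1- to 4-leaf stage). Paddy tests: pots flooded to 3 cm, compound applied into the water, depth held throughout.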

kochia = assay: Test C pre-/postemergence test; type: in vivo, Kochia scoparia
Outline: as §1

velvetleaf = assay: Test C pre-/postemergence test; type: in vivo, Abutilon theophrasti
Outline: as §1

green foxtail = assay: Test F preemergence test; type: in vivo, Setaria viridis; conditions: scale 0 to 100
Outline: (§2)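 Test chemicals in a non-phytotoxic solvent mixture containing a surfactant were applied preemergence to sown seeds or postemergence to sugarcane plants. Treated plants and controls were held in a greenhouse for 14 to 21 days, then visually evaluated against controls.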

mustard = assay: Test F preemergence test; type: in vivo, Brassica nigra; conditions: scale 0 to 100
Outline: as §2

dallisgrass = assay: Test F preemergence test; type: in vivo, Paspalum dilatatum; conditions: scale 0 to 100
Outline: as §2

barnyardgrass [2] = assay: Test F preemergence test; type: in vivo, Echinochloa crus-galli
Outline: as §2

broadleaf signalgrass = assay: Test F preemergence test; type: in vivo, Brachiaria platyphylla; conditions: scale 0 to 100
Outline: as §2

Virginia dayflower = assay: Test F preemergence test; type: in vivo, Commelina virginica; conditions: 16 g ai/ha, preemergence; scale 0 to 100
Outline: as §2

annual bluegrass = assay: Test F preemergence test; type: in vivo, Poa annua; conditions: scale 0 to 100
Outline: as §2

itchgrass = assay: Test F preemergence test; type: in vivo, Rottboellia cochinchinensis; conditions: scale 0 to 100
Outline: as §2

field bindweed = assay: Test F preemergence test; type: in vivo, Convolvulus arvensis; conditions: scale 0 to 100
Outline: as §2

common mallow = assay: Test F preemergence test; type: in vivo, Malva sylvestris; conditions: scale 0 to 100
Outline: as §2

[3] = 125 g ai/ha, preemergence, scale 0 (no effect) to 100 (complete control)
[4] = 62 g ai/ha, Preemergence, scale 0 to 100
[5] = Postemergence, 125 g ai/ha, scale 0 to 100, 0 no effect, 100 complete control
[6] = Postemergence, 250 g ai/ha, scale 0 to 100, 0 no effect, 100 complete control
[7] = Preemergence, 31 g ai/ha, scale 0 to 100 (0 no effect, 100 complete control)
[8] = preemergence, 250 g ai/ha, scale 0 (no effect) to 100 (complete control)

Cn1nc(C(F)(F)F)c(C[S+]([O-])c2ccc(F)c[n+]2[O-])c1OCC(F)(F)F (centres unmarked) [Compound 67]
Plant response rating, Barnyardgrass (barnyardgrass [1]; Postemergence, 125 g ai/ha): 90
Barnyardgrass plant response rating (barnyardgrass [1]; Postemergence, 500 g ai/ha, 0 is no effect, 100 is complete control): 90
Barnyardgrass plant response rating (barnyardgrass [1]; Preemergence, 125 g ai/ha, 0 no effect, 100 complete control): 90
Plant response rating, Barnyardgrass (barnyardgrass [1]; Preemergence, 500 g ai/ha): 100
Cocklebur plant response rating (cocklebur; [3]): 0
Plant response rating (0 to 100), Cocklebur (cocklebur; Postemergence, 31 g ai/ha): 0
Plant response rating, Cocklebur (cocklebur; Postemergence, 62 g ai/ha): 0
Plant response rating, Cocklebur (cocklebur; Postemergence, 125 g ai/ha): 0
Plant response rating, Cocklebur (cocklebur; Postemergence, 250 g ai/ha): 0
Kochia plant response rating (kochia; [4]): 100
Kochia plant response rating (kochia; [3]): 100
Plant response rating (0 to 100), Kochia (kochia; Postemergence, 31 g ai/ha): 0
Plant response rating, Kochia (kochia; Postemergence, 62 g ai/ha, scale 0 to 100, 0 no effect, 100 complete control): 0
Plant response rating, Kochia (kochia; [5]): 60
Plant response rating, Kochia (kochia; [6]): 60
Plant response rating, Kochia (kochia; [7]): 80
Kochia plant response rating (kochia; [8]): 100
Velvetleaf plant response rating (velvetleaf; [4]): 85
Velvetleaf plant response rating (velvetleaf; [3]): 100
Plant response rating (0 to 100), Velvetleaf (velvetleaf; Postemergence, 31 g ai/ha): 0
Plant response rating (0 to 100), Velvetleaf (velvetleaf; Postemergence, 62 g ai/ha): 0
Plant response rating, Velvetleaf (velvetleaf; [5]): 30
Plant response rating, Velvetleaf (velvetleaf; [6]): 35
Plant response rating, Velvetleaf (velvetleaf; [7]): 75
Velvetleaf plant response rating (velvetleaf; [8]): 100
Plant response rating, Foxtail, Green (green foxtail; 16 g ai/ha, preemergence): 40
Foxtail, Green plant response rating (green foxtail; 62 g ai/ha, Preemergence): 80
Foxtail, Green plant response rating (green foxtail; 125 g ai/ha, preemergence): 100
Plant response rating, Foxtail, Green (green foxtail; Preemergence, 31 g ai/ha): 60
Plant response rating, Black Mustard (mustard; 16 g ai/ha, preemergence): 0
Black Mustard plant response rating (mustard; 62 g ai/ha, Preemergence): 100
Black Mustard plant response rating (mustard; 125 g ai/ha, preemergence): 100
Plant response rating, Black Mustard (mustard; Preemergence, 31 g ai/ha): 75
Plant response rating, Dallisgrass (dallisgrass; 16 g ai/ha, preemergence): 0
Dallisgrass plant response rating (dallisgrass; 62 g ai/ha, Preemergence): 95
Dallisgrass plant response rating (dallisgrass; 125 g ai/ha, preemergence): 100
Plant response rating, Dallisgrass (dallisgrass; Preemergence, 31 g ai/ha): 40
Plant response rating, Barnyardgrass (barnyardgrass [2]; 16 g ai/ha, preemergence, scale 0 to 100 (0 no effect, 100 complete control)): 75
Barnyardgrass plant response rating (barnyardgrass [2]; [4]): 100
Barnyardgrass plant response rating (barnyardgrass [2]; 125 g ai/ha, preemergence, scale 0 to 100): 100
Plant response rating, Barnyardgrass (barnyardgrass [2]; Preemergence, 31 g ai/ha, scale 0 to 100): 90
Plant response rating, Signalgrass (broadleaf signalgrass; 16 g ai/ha, preemergence): 0
Signalgrass plant response rating (broadleaf signalgrass; 125 g ai/ha, preemergence): 98
Plant response rating, Signalgrass (broadleaf signalgrass; Preemergence, 62 g ai/ha): 90
Plant response rating, Signalgrass (broadleaf signalgrass; Preemergence, 31 g ai/ha): 30
Plant response rating, Dayflower (Virginia dayflower): 50
Plant response rating, Bluegrass (annual bluegrass; 16 g ai/ha, preemergence): 0
Bluegrass plant response rating (annual bluegrass; 62 g ai/ha, Preemergence): 80
Bluegrass plant response rating (annual bluegrass; 125 g ai/ha, preemergence): 100
Plant response rating, Bluegrass (annual bluegrass; Preemergence, 31 g ai/ha): 0
Plant response rating, Itchgrass (itchgrass; 16 g ai/ha, preemergence): 15
Itchgrass plant response rating (itchgrass; 62 g ai/ha, Preemergence): 65
Itchgrass plant response rating (itchgrass; 125 g ai/ha, preemergence): 100
Plant response rating, Itchgrass (itchgrass; Preemergence, 31 g ai/ha): 25
Plant response rating, Field Bindweed (field bindweed; 16 g ai/ha, preemergence): 0
Field Bindweed plant response rating (field bindweed; 62 g ai/ha, Preemergence): 35
Field Bindweed plant response rating (field bindweed; 125 g ai/ha, preemergence): 80
Plant response rating, Field Bindweed (field bindweed; Preemergence, 31 g ai/ha): 10
Plant response rating, Mallow (common mallow; 16 g ai/ha, preemergence): 0
Mallow plant response rating (common mallow; 62 g ai/ha, Preemergence): 100
Mallow plant response rating (common mallow; 125 g ai/ha, preemergence): 100
Plant response rating, Mallow (common mallow; Preemergence, 31 g ai/ha): 15
